The subject of this experiment is H3K4me2 in HCT116 cells. Put plainly: Histone methylation H3K4me2 by western blot. It is filed as cell-based, human. The conditions noted are these: HCT116, 0.1–10 μM, 24 hours, H3K4me2 antibody. As to the method: We next screened 25–33 and SP2509 over a concentration range of 0.1–10 μM in HCT116 cells (obtained from ATCC, CCL-247) and determined LSD1 abundance after 24 hours with an antibody for LSD1 (Fig. S4 ^†). […] Using the same conditions, we also determined the effects of SP2509, 25, 27, 28, 30 and 31 on histone H3 lysine 4 dimethyl (H3K4me2) a validated substrate for LSD1 using a specific antibody for H3K4me2 (Fig. S4 ^†).
Compounds 39–41, 49, 52 and 54 were screened for LSD1 degradation in HCT116 cells using a specific antibody for LSD1. This was performed side-by-side with TCP. Compounds were tested at concentration ranges of 0.2–20 μM and LSD1 abundance was quantified at 24 hours (Fig. S5 ^†). 49, 52 and 54 were also evaluated at 48 and 72 hours. […] We also determined the effects of these compounds on the histone methyl marker H3K4me2 (Fig. S5 and S6 ^†).
2.5 Protocols for LSD1 degradation and histone methylation in HCT116 cells HCT116 human colon carcinoma cells were grown in Dulbecco’s Modified Eagle Medium (DMEM) supplemented with Fetal Bovine Serum (FBS, 10% final concentration) and 1x glutamine/penicillin/streptomycin. Cells were incubated at 37 °C and 5% CO2. Cells were treated with compounds (0.1-20 µM) with a final DMSO volume of 0.04%. DMSO (0.04%) treated and untreated (WT) cells were included as controls.
HCT116 cells were seeded into six well plates (400000 cells per well) and after requisite compound treatment time (24h, 48h, 72h) cells were harvested and either snap-frozen in liquid nitrogen or lysed in lysis buffer (50mM Tris-HCl, 150 mM NaCl, 0.5% NP-40, 0.5% Triton X-100 + protease inhibitor) on ice for 30 mins. This was centrifuged (15000 rpm, 4 °C, 15 mins) and the supernatant collected.
H2SO4 (0.4 M, equal volume) was added to the pellets for histone extraction and the tubes incubated overnight at 4 °C. Following this, the histone extract was centrifuged (15000 rpm, 4 °C, 15 mins) and the supernatant collected. Protein concentrations of whole cell extract were quantified via Bradford Assay using BIO-RAD Protein Assay Dye Reagent Concentrate.
Western blots were run on NuPAGE 4-12% Bis-Tris gels, with 30 µg of protein (whole cell extract) or an equivalent volume of histone extract loaded per lane, with all extracts dyed with 4x NuPAGE LDS Sample Buffer. PageRuler Plus Prestained Ladder was used as a reference. Gel electrophoresis was carried out at 140 V for 60-90 mins, following which the proteins were transferred onto nitrocellulose membrane at 30 V for 60 mins. Membranes were blocked in LI-COR Intercept Blocking Buffer overnight at RT on a roller, following which the membrane was probed with primary antibodies for 1 h at RT. The membrane was washed with PBS + 0.1% Tween (3 x 10 mins), then incubated with secondary antibodies for 50 mins at RT. The membrane was washed again (PBS Tween 2 x 10 mins, PBS 1 x 10 mins) following which the blot was visualised with the Odyssey Infrared Imaging System. Image processing and quantification was performed with ImageStudio Lite. […]
a-tubulin (mouse) – Sigma, t5168 (1:10000 dilution)
A general note: In western blotting, separated proteins are transferred to a membrane and probed.

As for `C/C(=N\NC(=O)c1cccc(S(=O)(=O)N2CCOCC2)c1)c1cc(OCCOCCOCCC(=O)NCCNc2cccc3c2C(=O)N(C2CCC(=O)NC2=O)C3=O)ccc1O` (stereo not shown) [compound 31], the H3K4me2 abundance entry was “no increase in H3K4me2”.

Values taken from publication PMC12323867 (RSC Medicinal Chemistry, 2025).
